The values that follow are results of earlier work, collected in patent US20070092573A1, “STABILIZED EXTENDED RELEASE PHARMACEUTICAL COMPOSITIONS COMPRISING A BETA-ADRENORECEPTOR ANTAGONIST” (priority 2005, published 2007).

`COCCc1ccc(OCC(O)CNC(C)C)cc1` (stereo not shown) [Metoprolol Succinate]: the water solubility entry was “highly water-soluble”.
